Laboratory results taken from ChEMBL document CHEMBL3217454, “Structureactivity relationship studies using peptide arrays: the example of HIV-1 Revintegrase interaction” (Medchemcomm, 2013).
Peptide text beside a SMILES is read from it.

Tests used:
[1] = test system: Human immunodeficiency virus 1; assay: Binding affinity to HLT-tagged HIV-1 Rev measured after overnight incubation by chemiluminescence analysis relative to IN 174-188; set-up: concentration or dose not given beside the values
[2] = biological target: Human immunodeficiency virus type 1 integrase (Human immunodeficiency virus 1) (UniProt Q7ZJM1); assay: Binding affinity to HIV-1 integrase measured after overnight incubation by chemiluminescence analysis relative to IN 174-188; set-up: concentration or dose not given beside the values
Sequence of Human immunodeficiency virus type 1 integrase (Human immunodeficiency virus 1) (Q7ZJM1 as listed by the source): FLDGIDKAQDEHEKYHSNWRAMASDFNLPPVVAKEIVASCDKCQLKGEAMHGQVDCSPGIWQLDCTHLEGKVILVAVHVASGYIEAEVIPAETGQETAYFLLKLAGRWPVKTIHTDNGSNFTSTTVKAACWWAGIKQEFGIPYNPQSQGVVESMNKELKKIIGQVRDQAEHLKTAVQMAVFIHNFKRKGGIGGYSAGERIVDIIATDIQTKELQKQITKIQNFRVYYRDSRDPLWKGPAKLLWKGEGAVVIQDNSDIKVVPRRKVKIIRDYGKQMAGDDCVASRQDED

Compound	Activity [1] [%]	Activity [2] [%]
CC[C@H](C)[C@@H](NC(=O)[C@H](Cc1ccccc1)NC(=O)[C@@H](NC(=O)[C@H](C)NC(=O)[C@H](CCSC)NC(=O)[C@H](CCC(N)=O)NC(=O)[C@@H](NC(=O)[C@H](C)NC(=O)[C@@H](N)[C@@H](C)O)C(C)C)C(C)C)C(=O)N[C@@H](Cc1cnc[nH]1)C(=O)N[C@@H](CC(N)=O)C(=O)N[C@@H](Cc1ccccc1)C(=O)N[C@@H](CCCCN)C(=O)N[C@@H](CCCNC(=N)N)C(=O)N[C@@H](CCCCN)C(=O)O	108	99
CC[C@H](C)[C@H](NC(=O)[C@@H](Cc1ccccc1)NC(=O)[C@@H](NC(=O)[C@H](C)NC(=O)[C@H](CCSC)NC(=O)[C@H](CCC(N)=O)NC(=O)[C@@H](NC(=O)[C@H](C)NC(=O)[C@@H](N)[C@@H](C)O)C(C)C)C(C)C)C(=O)N[C@@H](Cc1cnc[nH]1)C(=O)N[C@@H](CC(N)=O)C(=O)N[C@@H](Cc1ccccc1)C(=O)N[C@@H](CCCCN)C(=O)N[C@@H](CCCNC(=N)N)C(=O)N[C@@H](CCCCN)C(=O)O	231	120
CC[C@H](C)[C@H](NC(=O)[C@H](Cc1ccccc1)NC(=O)[C@@H](NC(=O)[C@@H](C)NC(=O)[C@H](CCSC)NC(=O)[C@H](CCC(N)=O)NC(=O)[C@@H](NC(=O)[C@H](C)NC(=O)[C@@H](N)[C@@H](C)O)C(C)C)C(C)C)C(=O)N[C@@H](Cc1cnc[nH]1)C(=O)N[C@@H](CC(N)=O)C(=O)N[C@@H](Cc1ccccc1)C(=O)N[C@@H](CCCCN)C(=O)N[C@@H](CCCNC(=N)N)C(=O)N[C@@H](CCCCN)C(=O)O	194	142
CC[C@H](C)[C@H](NC(=O)[C@H](Cc1ccccc1)NC(=O)[C@@H](NC(=O)[C@H](C)NC(=O)[C@@H](CCSC)NC(=O)[C@H](CCC(N)=O)NC(=O)[C@@H](NC(=O)[C@H](C)NC(=O)[C@@H](N)[C@@H](C)O)C(C)C)C(C)C)C(=O)N[C@@H](Cc1cnc[nH]1)C(=O)N[C@@H](CC(N)=O)C(=O)N[C@@H](Cc1ccccc1)C(=O)N[C@@H](CCCCN)C(=O)N[C@@H](CCCNC(=N)N)C(=O)N[C@@H](CCCCN)C(=O)O	196	127
CC[C@H](C)[C@H](NC(=O)[C@H](Cc1ccccc1)NC(=O)[C@@H](NC(=O)[C@H](C)NC(=O)[C@H](CCSC)NC(=O)[C@@H](CCC(N)=O)NC(=O)[C@@H](NC(=O)[C@H](C)NC(=O)[C@@H](N)[C@@H](C)O)C(C)C)C(C)C)C(=O)N[C@@H](Cc1cnc[nH]1)C(=O)N[C@@H](CC(N)=O)C(=O)N[C@@H](Cc1ccccc1)C(=O)N[C@@H](CCCCN)C(=O)N[C@@H](CCCNC(=N)N)C(=O)N[C@@H](CCCCN)C(=O)O	173	154
CC[C@H](C)[C@H](NC(=O)[C@H](Cc1ccccc1)NC(=O)[C@@H](NC(=O)[C@H](C)NC(=O)[C@H](CCSC)NC(=O)[C@H](CCC(N)=O)NC(=O)[C@@H](NC(=O)[C@@H](C)NC(=O)[C@@H](N)[C@@H](C)O)C(C)C)C(C)C)C(=O)N[C@@H](Cc1cnc[nH]1)C(=O)N[C@@H](CC(N)=O)C(=O)N[C@@H](Cc1ccccc1)C(=O)N[C@@H](CCCCN)C(=O)N[C@@H](CCCNC(=N)N)C(=O)N[C@@H](CCCCN)C(=O)O	209	105
CC[C@H](C)[C@H](NC(=O)[C@H](Cc1ccccc1)NC(=O)[C@@H](NC(=O)[C@H](C)NC(=O)[C@H](CCSC)NC(=O)[C@H](CCC(N)=O)NC(=O)[C@@H](NC(=O)[C@H](C)NC(=O)[C@@H](N)[C@@H](C)O)C(C)C)C(C)C)C(=O)N[C@@H](Cc1cnc[nH]1)C(=O)N[C@@H](CC(N)=O)C(=O)N[C@@H](Cc1ccccc1)C(=O)N[C@@H](CCCCN)C(=O)N[C@@H](CCCNC(=N)N)C(=O)N[C@H](CCCCN)C(=O)O	110	86
CC[C@H](C)[C@H](NC(=O)[C@H](Cc1ccccc1)NC(=O)[C@@H](NC(=O)[C@H](C)NC(=O)[C@H](CCSC)NC(=O)[C@H](CCC(N)=O)NC(=O)[C@@H](NC(=O)[C@H](C)NC(=O)[C@@H](N)[C@@H](C)O)C(C)C)C(C)C)C(=O)N[C@@H](Cc1cnc[nH]1)C(=O)N[C@@H](CC(N)=O)C(=O)N[C@@H](Cc1ccccc1)C(=O)N[C@@H](CCCCN)C(=O)N[C@H](CCCNC(=N)N)C(=O)N[C@@H](CCCCN)C(=O)O	169	93
CC[C@H](C)[C@H](NC(=O)[C@H](Cc1ccccc1)NC(=O)[C@@H](NC(=O)[C@H](C)NC(=O)[C@H](CCSC)NC(=O)[C@H](CCC(N)=O)NC(=O)[C@@H](NC(=O)[C@H](C)NC(=O)[C@@H](N)[C@@H](C)O)C(C)C)C(C)C)C(=O)N[C@@H](Cc1cnc[nH]1)C(=O)N[C@@H](CC(N)=O)C(=O)N[C@@H](Cc1ccccc1)C(=O)N[C@H](CCCCN)C(=O)N[C@@H](CCCNC(=N)N)C(=O)N[C@@H](CCCCN)C(=O)O	120	110
CC[C@H](C)[C@H](NC(=O)[C@H](Cc1ccccc1)NC(=O)[C@@H](NC(=O)[C@H](C)NC(=O)[C@H](CCSC)NC(=O)[C@H](CCC(N)=O)NC(=O)[C@@H](NC(=O)[C@H](C)NC(=O)[C@@H](N)[C@@H](C)O)C(C)C)C(C)C)C(=O)N[C@@H](Cc1cnc[nH]1)C(=O)N[C@@H](CC(N)=O)C(=O)N[C@H](Cc1ccccc1)C(=O)N[C@@H](CCCCN)C(=O)N[C@@H](CCCNC(=N)N)C(=O)N[C@@H](CCCCN)C(=O)O	156	112
CC[C@H](C)[C@H](NC(=O)[C@H](Cc1ccccc1)NC(=O)[C@@H](NC(=O)[C@H](C)NC(=O)[C@H](CCSC)NC(=O)[C@H](CCC(N)=O)NC(=O)[C@@H](NC(=O)[C@H](C)NC(=O)[C@@H](N)[C@@H](C)O)C(C)C)C(C)C)C(=O)N[C@@H](Cc1cnc[nH]1)C(=O)N[C@H](CC(N)=O)C(=O)N[C@@H](Cc1ccccc1)C(=O)N[C@@H](CCCCN)C(=O)N[C@@H](CCCNC(=N)N)C(=O)N[C@@H](CCCCN)C(=O)O	92	116
CC[C@H](C)[C@H](NC(=O)[C@H](Cc1ccccc1)NC(=O)[C@@H](NC(=O)[C@H](C)NC(=O)[C@H](CCSC)NC(=O)[C@H](CCC(N)=O)NC(=O)[C@@H](NC(=O)[C@H](C)NC(=O)[C@@H](N)[C@@H](C)O)C(C)C)C(C)C)C(=O)N[C@H](Cc1cnc[nH]1)C(=O)N[C@@H](CC(N)=O)C(=O)N[C@@H](Cc1ccccc1)C(=O)N[C@@H](CCCCN)C(=O)N[C@@H](CCCNC(=N)N)C(=O)N[C@@H](CCCCN)C(=O)O	105	105
CC[C@H](C)[C@H](NC(=O)[C@H](Cc1ccccc1)NC(=O)[C@@H](NC(=O)[C@H](C)NC(=O)[C@H](CCSC)NC(=O)[C@H](CCC(N)=O)NC(=O)[C@@H](NC(=O)[C@H](C)NC(=O)[C@H](N)[C@@H](C)O)C(C)C)C(C)C)C(=O)N[C@@H](Cc1cnc[nH]1)C(=O)N[C@@H](CC(N)=O)C(=O)N[C@@H](Cc1ccccc1)C(=O)N[C@@H](CCCCN)C(=O)N[C@@H](CCCNC(=N)N)C(=O)N[C@@H](CCCCN)C(=O)O	141	73
CC[C@H](C)[C@H](NC(=O)[C@H](Cc1ccccc1)NC(=O)[C@@H](NC(=O)[C@H](C)NC(=O)[C@H](CCSC)NC(=O)[C@H](CCC(N)=O)NC(=O)[C@H](NC(=O)[C@H](C)NC(=O)[C@@H](N)[C@@H](C)O)C(C)C)C(C)C)C(=O)N[C@@H](Cc1cnc[nH]1)C(=O)N[C@@H](CC(N)=O)C(=O)N[C@@H](Cc1ccccc1)C(=O)N[C@@H](CCCCN)C(=O)N[C@@H](CCCNC(=N)N)C(=O)N[C@@H](CCCCN)C(=O)O	226	115
CC[C@H](C)[C@H](NC(=O)[C@H](Cc1ccccc1)NC(=O)[C@H](NC(=O)[C@H](C)NC(=O)[C@H](CCSC)NC(=O)[C@H](CCC(N)=O)NC(=O)[C@@H](NC(=O)[C@H](C)NC(=O)[C@@H](N)[C@@H](C)O)C(C)C)C(C)C)C(=O)N[C@@H](Cc1cnc[nH]1)C(=O)N[C@@H](CC(N)=O)C(=O)N[C@@H](Cc1ccccc1)C(=O)N[C@@H](CCCCN)C(=O)N[C@@H](CCCNC(=N)N)C(=O)N[C@@H](CCCCN)C(=O)O	152	108
CC[C@H](C)[C@H](NC(=O)[C@H](Cc1ccccc1)NC(=O)[C@@H](NC(=O)[C@H](C)NC(=O)[C@H](CCSC)NC(=O)[C@H](CCC(N)=O)NC(=O)[C@@H](NC(=O)[C@H](C)NC(=O)[C@H](C)N)C(C)C)C(C)C)C(=O)N[C@@H](Cc1cnc[nH]1)C(=O)N[C@@H](CC(N)=O)C(=O)N[C@@H](Cc1ccccc1)C(=O)N[C@@H](CCCCN)C(=O)N[C@@H](CCCNC(=N)N)C(=O)N[C@@H](CCCCN)C(=O)O (H-AAVQMAVFIHNFKRK-OH)	80	83
CC[C@H](C)[C@H](NC(=O)[C@H](Cc1ccccc1)NC(=O)[C@@H](NC(=O)[C@H](C)N)C(C)C)C(=O)N[C@@H](Cc1cnc[nH]1)C(=O)N[C@@H](CC(N)=O)C(=O)N[C@@H](Cc1ccccc1)C(=O)N[C@@H](CCCCN)C(=O)N[C@@H](CCCNC(=N)N)C(=O)N[C@@H](CCCCN)C(=O)O (H-AVFIHNFKRK-OH)	111	120
CC[C@H](C)[C@H](NC(=O)[C@H](Cc1ccccc1)NC(=O)[C@@H](NC(=O)[C@H](C)NC(=O)[C@H](CCSC)NC(=O)[C@H](CCC(N)=O)NC(=O)[C@@H](NC(=O)[C@H](C)N)C(C)C)C(C)C)C(=O)N[C@@H](Cc1cnc[nH]1)C(=O)N[C@@H](CC(N)=O)C(=O)N[C@@H](Cc1ccccc1)C(=O)N[C@@H](CCCCN)C(=O)N[C@@H](CCCNC(=N)N)C(=O)N[C@@H](CCCCN)C(=O)O (H-AVQMAVFIHNFKRK-OH)	141	99
CC[C@H](C)[C@H](NC(=O)[C@@H](N)Cc1ccccc1)C(=O)N[C@@H](Cc1cnc[nH]1)C(=O)N[C@@H](CC(N)=O)C(=O)N[C@@H](Cc1ccccc1)C(=O)N[C@@H](CCCCN)C(=O)N[C@@H](CCCNC(=N)N)C(=O)N[C@@H](CCCCN)C(=O)O (H-FIHNFKRK-OH)	69	133
CC[C@H](C)[C@H](NC(=O)[C@H](Cc1ccccc1)NC(=O)[C@@H](NC(=O)[C@H](C)NC(=O)[C@@H](N)CCSC)C(C)C)C(=O)N[C@@H](Cc1cnc[nH]1)C(=O)N[C@@H](CC(N)=O)C(=O)N[C@@H](Cc1ccccc1)C(=O)N[C@@H](CCCCN)C(=O)N[C@@H](CCCNC(=N)N)C(=O)N[C@@H](CCCCN)C(=O)O (H-MAVFIHNFKRK-OH)	88	106
